Measurements taken from publication PMC6429585, “Synthesis, Microtubule-Binding Affinity, and Antiproliferative Activity of New Epothilone Analogs and of an EGFR-Targeted Epothilone-Peptide Conjugate” (International Journal of Molecular Sciences, 2019).
Like-named read-outs stand apart in the source and are kept apart here.

Tests used:
human cancer cells = tested on: human cancer cells; design: method as in PMID 7757983, PMID 8999970; conditions: cited from earlier work
[1] = Glutathione cleavage assay (reductive disulfide cleavage, RP-HPLC); type: physicochemical; conditions: 10 mM GSH
Method: The reductive cleavage of conjugate 4 was analyzed under conditions mimicking those found in the endosome and the cytoplasm of cancer cells. Endosome-like conditions were assumed to be reproduced by a 10 mM solution of glutathione (GSH) in acetate and phosphate buffer pH 4.9; cytoplasm-like conditions entailed 10 mM GSH in phosphate buffer pH 7.4.
For cytoplasm-like conditions, 100 µL of a […] solution of conjugate 4 in degassed 100 mM phosphate buffer pH 7.4 were diluted with 400 µL of a degassed phosphate buffer and 500 µL of 20 mM glutathione in 100 mM phosphate buffer pH 7.4. Aliquots of 80 µL were removed at predefined time points, and the reaction was quenched with one volume of 10% metaphosphoric acid, giving a pH of 1 approximately. Fifty microliters of this solution were analyzed by analytical RP-HPLC. The same protocol was used for cleavage under endosome-like conditions, except that the glutathione solution was prepared in a 100 mM acetate buffer at pH 4.8, and the same buffer was also used to dilute the conjugate solution in a 100 mM phosphate buffer at pH 7.4. The final pH of the cleavage solution was 4.9.
Analytical RP-HPLC: H2O with 0.1% TFA (A)/acetonitrile/water 8/2 with 0.05% TFA (B). Linear gradient from 5% B to 80% B over 30 min. The percentage of remaining conjugate in the solutions was plotted against time (Figure 3). Analysis of the cleavage solutions by LC/MS provided information of the fractions of the various components in the redox mixture.
Figure 3 Kinetics of glutathione (GSH)-mediated reduction of epothilone-peptide conjugate 4 (173 µM 4, 10 mM GSH, pH 4.9 (endosome-like conditions), triangles, or pH 7.4 (cytoplasm-like conditions), circles). Conjugate 4 was added to the respective GSH solutions as a solution in phosphate buffer pH 7.4 at room temperature, to reach a total concentration of 173 μM. Samples were quenched at different time points with 10% metaphosphoric acid and analyzed by RP-HPLC. […]

[2] = Stability in complete cell culture medium (RP-HPLC); type: in vitro ADME; conditions: bovine, complete cell culture medium (RPMI with 10% FBS); 8.6 μM solution in RPMI with 10% FBS, 3 days, 37 °C; read-out: degradation in cell culture medium
Method: The stability of the epothilone-GE11 conjugate 4 in complete cell culture medium was evaluated under conditions resembling those encountered in the cytotoxicity assays. Thus, an 8.6 μM solution of 4 in RPMI with 10% FBS was incubated for 3 days at 37 °C and subsequently analyzed by RP-HPLC. Only minor degradation of 4 (<10%) was observed under these conditions (data not shown).
Synthesis, Microtubule-Binding Affinity and Antiproliferative Activity of New Epothilone Analogs and of an EGFR-Targeted Epothilone-Peptide
Fabienne Zdenka Gaugaz, Andrea Chicca, Mariano Redondo, Isabel Barasoain, José Fernando Díaz, and Karl-Heinz Altmann*
SI.1. EGFR Expression Quantification
EGFR expression levels were determined by treating cells with 1 µg/ml Cetuximab or human IgG isotype antibody and staining with a secondary Alexa Fluor 647 goat anti-human IgG.[49] The fluorescence was quantified by FACS on a FACSCanto device with a FACSDiva software and later analyzed with FlowJo (Fig. S1). […]
Figure S1: Relative quantification of EGF receptors by FACS. […]
The stability of 4 in cell culture medium was evaluated by analytical RP-HPLC. […] The mixture was centrifuged and 10 µL of the supernatant were analyzed by analytical HPLC: H2O with 0.1% TFA (A) / acetonitrile/H2O 8/2 with 0.05% TFA (B). […]

SW480 cells = assay: cells; type: cell-based, human; conditions: 72 h incubation, mean of three experiments ± SD; read-out: IC50 SW480
Method: (§1) Experiments were performed in RPMI (SW480 cells) or DMEM (HEK293 and A431 cells) medium (Gibco) supplemented with 2 mM glutamine, 10% fetal bovine serum, 100 IU/mL penicillin, 100 µg/mL streptomycin, and 1 µg/mL amphotericin B (all from Sigma) at 37 °C and 5% CO2. Cells were seeded into 96-well microtiter plates and compounds were added in DMSO in serial dilutions in triplicate. The final DMSO (dimethylsulfoxide) concentration was 0.1%. After 72 h, a WST-1 reagent was added and the absorption was measured at 450 nm with a plate reader after 30 min to 4 h. The percentage of viable cells was calculated based on vehicle-treated cells and was plotted in GraphPadPrism. At least three independent experiments were performed.
(§2) A431 cells were obtained from CLS. The other cell lines were available in the laboratory. WST-1 was purchased from Roche.

HEK293 cells = assay: cells; type: cell-based, human; conditions: 72 h incubation, mean of three experiments ± SD; read-out: IC50 HEK293
Method: as §1, §2

A431 cells = assay: cells; type: cell-based, human; conditions: 72 h incubation, mean of three experiments ± SD; read-out: IC50 A431
Method: as §1, §2

Structure (SMILES) | IC50 values for most cell lines (human cancer cells) | half-life at 173 µM ([1]; acetate and phosphate buffer pH 4.9, read-out: half-life, endosome-like conditions) [s] | residual conjugate 1 min after addition, cytoplasm-like conditions ([1]; phosphate buffer pH 7.4, 1 min) | half-life at 173 µM ([1]; phosphate buffer pH 7.4, read-out: estimated half-life, cytoplasm-like conditions) [s] | metabolised at 72 h, 8.6 μM [2] [%] | IC50 (SW480 cells) [nM] | IC50 (HEK293 cells) [nM] | IC50 (A431 cells) [nM]
C/C(=C\c1csc(C)n1)[C@@H]1C[C@@H]2O[C@]2(C)CCC[C@H](C)[C@H](O)[C@@H](C)C(=O)C(C)(C)[C@@H](O)CC(=O)O1 [Epo B, Epothilone B] | sub-nanomolar |  |  |  |  |  |  | 
CC[C@H](C)[C@H](NC(=O)[C@@H](NC(=O)[C@H](CC(N)=O)NC(=O)[C@H](CCC(N)=O)NC(=O)[C@@H]1CCCN1C(=O)[C@@H](NC(=O)[C@H](Cc1ccc(O)cc1)NC(=O)CNC(=O)[C@H](Cc1ccc(O)cc1)NC(=O)[C@H](Cc1c[nH]c2ccccc12)NC(=O)[C@H](Cc1c[nH]cn1)NC(=O)[C@H](Cc1ccc(O)cc1)NC(=O)[C@@H](N)CSSCCn1c(C)nc2cc([C@@H]3C[C@@H]4C[C@H]4CCC[C@H](C)[C@H](O)[C@@H](C)C(=O)C(C)(C)CCC(=O)O3)ccc21)[C@@H](C)O)C(C)C)C(N)=O [compound 4] |  | 66 | no residual conjugate was detectable | ~12 | < 10 | 181 ± 25.9 | 31.1 ± 6.21 | 74.7 ± 6.65
